pEC50: −log10 of the molar value. The source made the active and inactive calls. No cut-off for these calls is given here.
How the values were obtained:
Variola virus [1] = experiment: Antiviral activity against Variola virus BRZ66-39 infected in african green monkey BSC-40 cells at 0.015 uM by IHC staining-based comet tail reduction assay; format: functional, organism-based
Monkeypox virus [2] = experiment: Antiviral activity against Monkeypox virus 2003-USA-039 infected in african green monkey BSC-40 cells assessed as reduction in virus-induced cytopathic effect at 0.05 to 5 uM; format: functional, organism-based
Variola virus [3] = experiment: Antiviral activity against Variola virus SUD47-juba infected in african green monkey BSC-40 cells at 0.05 to 0.5 uM by IHC staining-based plaque reduction assay; format: functional, organism-based
Monkeypox virus [4] = experiment: Antiviral activity against Monkeypox virus V1979-I-005 infected in african green monkey BSC-40 cells assessed as reduction in virus-induced cytopathic effect at 0.015 uM; format: functional, organism-based
Monkeypox virus [5] = experiment: Antiviral activity against Monkeypox virus V77-I-823 infected in african green monkey BSC-40 cells assessed as reduction in virus-induced cytopathic effect at 0.015 uM; format: functional, organism-based
Variola virus [6] = experiment: Antiviral activity against Variola virus SOM77-ali infected in african green monkey BSC-40 cells at 0.005 uM uM by IHC staining-based plaque reduction assay; format: functional, organism-based
Cowpox virus = experiment: Antiviral activity against Cowpox virus infected in african green monkey Vero cells assessed as reduction in virus-induced cytopathic effect; format: functional, organism-based
Monkeypox virus [7] = experiment: Antiviral activity against Monkeypox virus V77-I-823 infected in african green monkey BSC-40 cells at 0.015 uM by IHC staining-based comet tail reduction assay; format: functional, organism-based
Monkeypox virus [8] = experiment: Antiviral activity against Monkeypox virus V1979-I-005 infected in african green monkey BSC-40 cells at 0.05 to 0.5 uM by IHC staining-based comet tail reduction assay; format: functional, organism-based
Variola virus [9] = experiment: Antiviral activity against Variola virus NEP73-175 infected in african green monkey BSC-40 cells at 0.005 uM by IHC staining-based comet tail reduction assay; format: functional, organism-based
Variola virus [10] = experiment: Antiviral activity against Variola virus BRZ66-39 infected in african green monkey BSC-40 cells at 0.005 uM assessed as reduction in virus-induced cytopathic effect; format: functional, organism-based
Variola virus [11] = experiment: Antiviral activity against Variola virus BRZ66-39 infected in african green monkey BSC-40 cells at 0.05 to 0.5 uM by IHC staining-based plaque reduction assay; format: functional, organism-based
Variola virus [12] = experiment: microbe, parasite or virus in culture; details: SUD47-juba, BSC-40
Variola virus [13] = experiment: Antiviral activity against Variola virus BSH74-sol infected in african green monkey BSC-40 cells at 0.05 to 0.5 uM by IHC staining-based plaque reduction assay; format: functional, organism-based
Monkeypox virus [14] = experiment: Antiviral activity against Monkeypox virus V81-I-179 infected in african green monkey BSC-40 cells assessed as reduction in virus-induced cytopathic effect at 0.015 uM; format: functional, organism-based
Variola virus [15] = experiment: Antiviral activity against Variola virus SLN68-258 infected in african green monkey BSC-40 cells at 0.015 uM by IHC staining-based comet tail reduction assay; format: functional, organism-based
Variola virus [16] = experiment: Antiviral activity against Variola virus BRZ66-39 infected in african green monkey BSC-40 cells at 0.005 uM by IHC staining-based comet tail reduction assay; format: functional, organism-based
Monkeypox virus [17] = experiment: Antiviral activity against Monkeypox virus V81-I-179 infected in african green monkey BSC-40 cells assessed as reduction in virus-induced cytopathic effect at 0.05 to 5 uM; format: functional, organism-based
Variola virus [18] = experiment: Antiviral activity against Variola virus NEP73-175 infected in african green monkey BSC-40 cells assessed as reduction in viral plaque formation at 0.015 uM uM by IHC staining-based plaque reduction assay; format: functional
Variola virus [19] = experiment: Antiviral activity against Variola virus SUD47-juba infected in african green monkey BSC-40 cells at 0.05 to 0.5 uM by IHC staining-based comet tail reduction assay; format: functional, organism-based
Monkeypox virus [20] = experiment: Antiviral activity against Monkeypox virus V77-I-823 infected in african green monkey BSC-40 cells at 0.05 to 0.5 uM by IHC staining-based comet tail reduction assay; format: functional, organism-based
Variola virus [21] = experiment: Antiviral activity against Variola virus SOM77-ali infected in african green monkey BSC-40 cells at 0.05 to 0.5 uM by IHC staining-based plaque reduction assay; format: functional, organism-based
Monkeypox virus [22] = experiment: Antiviral activity against Monkeypox virus V78-I-3945 infected in african green monkey BSC-40 cells assessed as reduction in virus-induced cytopathic effect at 0.005 uM; format: functional, organism-based
Monkeypox virus [23] = experiment: Antiviral activity against Monkeypox virus V77-I-823 infected in african green monkey BSC-40 cells assessed as reduction in viral plaque formation at 0.015 uM uM by IHC staining-based plaque reduction assay; format: functional
Variola virus [24] = experiment: microbe, parasite or virus in culture; details: SLN68-258, BSC-40
Monkeypox virus [25] = experiment: Antiviral activity against Monkeypox virus 2003-USA-039 infected in african green monkey BSC-40 cells at 0.05 to 0.5 uM by IHC staining-based comet tail reduction assay; format: functional, organism-based
Variola virus [26] = experiment: Antiviral activity against Variola virus SUD47-juba infected in african green monkey BSC-40 cells at 0.05 to 5 uM assessed as reduction in virus-induced cytopathic effect; format: functional, organism-based
Monkeypox virus [27] = experiment: Antiviral activity against Monkeypox virus V78-I-3945 infected in african green monkey BSC-40 cells assessed as reduction in virus-induced cytopathic effect at 0.015 uM; format: functional, organism-based
Variola virus [28] = experiment: Antiviral activity against Variola virus BSH74-sol infected in african green monkey BSC-40 cells at 0.005 uM assessed as reduction in virus-induced cytopathic effect; format: functional, organism-based
Variola virus [29] = experiment: Antiviral activity against Variola virus SLN68-258 infected in african green monkey BSC-40 cells at 0.005 uM uM by IHC staining-based plaque reduction assay; format: functional, organism-based
Variola virus [30] = experiment: Antiviral activity against Variola virus SOM77-ali infected in african green monkey BSC-40 cells assessed as reduction in viral plaque formation at 0.015 uM uM by IHC staining-based plaque reduction assay; format: functional
Monkeypox virus [31] = experiment: Antiviral activity against Monkeypox virus 2003-USA-039 infected in african green monkey BSC-40 cells assessed as reduction in virus-induced cytopathic effect at 0.015 uM; format: functional, organism-based
Monkeypox virus [32] = experiment: Antiviral activity against Monkeypox virus V77-I-823 infected in african green monkey BSC-40 cells at 0.05 to 0.5 uM by IHC staining-based plaque reduction assay; format: functional, organism-based
Variola virus [33] = experiment: Antiviral activity against Variola virus SLN68-258 infected in african green monkey BSC-40 cells at 0.05 to 0.5 uM by IHC staining-based comet tail reduction assay; format: functional, organism-based
Variola virus [34] = experiment: Antiviral activity against Variola virus SUD47-juba infected in african green monkey BSC-40 cells assessed as reduction in viral plaque formation at 0.015 uM uM by IHC staining-based plaque reduction assay; format: functional
Monkeypox virus [35] = experiment: Antiviral activity against Monkeypox virus V77-I-823 infected in african green monkey BSC-40 cells at 0.005 uM by IHC staining-based comet tail reduction assay; format: functional, organism-based
Monkeypox virus [36] = experiment: Antiviral activity against Monkeypox virus V77-I-823 infected in african green monkey BSC-40 cells assessed as reduction in virus-induced cytopathic effect at 0.05 to 5 uM; format: functional, organism-based

## O=C(NN1C(=O)[C@@H]2[C@@H]3C=C[C@@H]([C@H]4C[C@@H]34)[C@@H]2C1=O)c1ccc(C(F)(F)F)cc1 [TECOVIRIMAT]
Variola virus [1]
  Activity: Active
Monkeypox virus [2]
  Activity: Active
Variola virus [3]
  Activity: Active
Monkeypox virus [4]
  Activity: Active
Monkeypox virus [5]
  Activity: Active
Variola virus [6]
  Activity: inactive
Cowpox virus
  Activity: Active
Monkeypox virus [7]
  Activity: Active
Monkeypox virus [8]
  Activity: Active
Variola virus [9]
  Activity: inactive
Variola virus [10]
  Activity: inactive
Variola virus [11]
  Activity: Active
Variola virus [12]
  pEC50: 7.72
Variola virus [13]
  Activity: Active
Monkeypox virus [14]
  Activity: Active
Variola virus [15]
  Activity: Active
Variola virus [16]
  Activity: inactive
Monkeypox virus [17]
  Activity: Active
Variola virus [18]
  inhibition (INH): 50%
Variola virus [19]
  Activity: Active
Monkeypox virus [20]
  Activity: Active
Variola virus [21]
  Activity: Active
Monkeypox virus [22]
  Activity: inactive
Monkeypox virus [23]
  inhibition (INH): 50%
Variola virus [24]
  pEC50: 7.43
Monkeypox virus [25]
  Activity: Active
Variola virus [26]
  Activity: Active
Monkeypox virus [27]
  Activity: Active
Variola virus [28]
  Activity: inactive
Variola virus [29]
  Activity: inactive
Variola virus [30]
  inhibition (INH): 50%
Monkeypox virus [31]
  Activity: Active
Monkeypox virus [32]
  Activity: Active
Variola virus [33]
  Activity: Active
Variola virus [34]
  inhibition (INH): 50%
Monkeypox virus [35]
  Activity: inactive
Monkeypox virus [36]
  Activity: Active
